Source: patent US10428066B2, “Imidazo[4,5-C]pyridine and pyrrolo[2,3-C]pyridine derivatives as SSAO inhibitors” (PROXIMAGEN, LLC, priority 2013, dated 2019)
Counter-ions that a name gives are not always drawn.

biological target: purified recombinantly expressed human SSAO (Homo sapiens (Human), UniProt Q16853); experiment: SSAO enzyme inhibition assay (HRP-coupled hydrogen peroxide detection or 14C-benzaldehyde detection, benzylamine substrate); format: biochemical; conditions: human recombinant SSAO, RT
Sequence (Q16853 29-763): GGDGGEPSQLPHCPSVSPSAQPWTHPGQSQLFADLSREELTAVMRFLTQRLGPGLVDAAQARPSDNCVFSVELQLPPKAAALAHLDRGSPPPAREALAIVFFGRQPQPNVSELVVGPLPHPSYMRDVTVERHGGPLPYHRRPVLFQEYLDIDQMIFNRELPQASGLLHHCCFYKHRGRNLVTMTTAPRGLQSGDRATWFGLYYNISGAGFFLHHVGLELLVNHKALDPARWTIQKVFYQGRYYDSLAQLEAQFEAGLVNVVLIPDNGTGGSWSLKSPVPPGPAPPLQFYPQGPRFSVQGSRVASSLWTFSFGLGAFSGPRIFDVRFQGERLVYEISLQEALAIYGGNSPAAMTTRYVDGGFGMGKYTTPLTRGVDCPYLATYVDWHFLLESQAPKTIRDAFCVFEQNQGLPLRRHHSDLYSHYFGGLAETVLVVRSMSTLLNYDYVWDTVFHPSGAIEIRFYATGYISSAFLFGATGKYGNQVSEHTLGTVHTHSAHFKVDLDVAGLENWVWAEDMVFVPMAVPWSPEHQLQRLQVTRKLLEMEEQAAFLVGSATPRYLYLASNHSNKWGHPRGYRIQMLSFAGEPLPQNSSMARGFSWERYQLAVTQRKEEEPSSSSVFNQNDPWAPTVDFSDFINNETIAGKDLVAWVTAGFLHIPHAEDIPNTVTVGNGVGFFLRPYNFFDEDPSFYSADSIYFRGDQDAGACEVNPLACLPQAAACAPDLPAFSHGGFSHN
Protocol: All primary assays were performed at RT. with purified recombinantly expressed human SSAO. Enzyme was prepared essentially as described in Öhman et al. (Protein Expression and Purification 46 (2006) 321-331). In addition, secondary- and selectivity assays were performed using SSAO prepared from various tissues or purified rat recombinant SSAO. The enzyme activity was assayed with benzylamine as substrate by measuring either benzaldehyde production, using ^14C-labeled substrate, or by utilizing the production of hydrogen peroxide in a horseradish peroxidase (HRP) coupled reaction. Briefly, test compounds were dissolved in dimethyl sulfoxide (DMSO) to a concentration of 10 mM. Dose-response measurements were assayed by either creating 1:10 serial dilutions in DMSO to produce a 7 point curve or by making 1:3 serial dilutions in DMSO to produce 11 point curves.
In a horseradish peroxidase (HRP) coupled reaction, hydrogen peroxide oxidation of 10-acetyl-3,7-dihydroxyphenoxazine produced resorufin, which is a highly fluorescent compound (Zhout and Panchuk-Voloshina. Analytical Biochemistry 253 (1997) 169-174; Amplex® Red Hydrogen Peroxide/peroxidase Assay kit, Invitrogen A22188). Enzyme and compounds in 50 mM sodium phosphate, pH 7.4 were set to pre-incubate in flat-bottomed microtiter plates for approximately 15 min before initiating the reaction by addition of a mixture of HRP, benzylamine and Amplex reagent. Benzylamine concentration was fixed at a concentration corresponding to the Michaelis constant, determined using standard procedures. Fluorescence intensity was then measured at several time points during 1-2 h, exciting at 544 nm and reading the emission at 590 nm. For the human SSAO assay final concentrations of the reagents in the assay wells were: SSAO enzyme 1 ug/ml, benzylamine 100 uM, Amplex reagent 20 uM, HRP 0.1 U/mL and varying concentrations of test compound. The inhibition was measured as % decrease of the signal compared to a control without inhibitor (only diluted DMSO). The background signal from a sample containing no SSAO enzyme was subtracted from all data points. Data was fitted to a four parameter logistic model and IC50 values were calculated using the GraphPad Prism 4 or XLfit 4 programs.
SSAO activity was assayed using 14C-labeled benzylamine and analysed by measuring radioactive benzaldehyde. In a white 96-well optiplate (Packard), 20 uL of diluted test compound was pre-incubated at room temperature with 20 uL SSAO enzyme for approximately 15 min with continuous agitation. All dilutions were made with PBS. The reaction was initiated by adding 20 uL of the benzylamine substrate solution containing [7-14C] Benzylamine hydrochloride (CFA589, GE Healthcare). The plate was incubated for 1 h as above after which the reaction was stopped by acidification (10 uL 1M aq HCl). Then 90 uL Micro Scint-E solution (Perkin-Elmer) was added to each well and the plate was continuously mixed for 15 min. Phase separation occurred instantly and activity was read in a Topcount scintillation counter (Perkin-Elmer). In the final reaction well, the human recombinant SSAO concentration was 10 ug/ml. In order to optimize sensitivity, the substrate concentration was decreased as compared to the HRP coupled assay in order to get a higher fraction of radioactive product. In the human SSAO assay, benzylamine concentration was 40 uM (0.2 uCi/mL). Data was analysed as above.

Structure (SMILES) | IC50 [nM]
Cc1ccc(-n2c(-c3cnc(N4CCOCC4)nc3)nc3ccncc32)c(F)c1 [Example 53, 4-{5-[3-(2-Fluoro-4-methylphenyl)-3H-imidazo[4,5-c]pyridin-2-yl]pyrimidin-2-yl}morpholine] | 200 to 1200
Nc1ncc(-c2nc3ccncc3n2-c2ccc(Cl)cc2)cn1 [Example 31, 5-[3-(4-Chlorophenyl)-3H-imidazo[4,5-c]pyridin-2-yl]pyrimidin-2-amine] | 200 to 1200
CCn1ccc(-c2cc3ccncc3n2-c2ccc(Cl)cc2)cc1=O [Example 144, 4-[1-(4-Chlorophenyl)-1H-pyrrolo[2,3-c]pyridin-2-yl]-1-ethyl-1,2-dihydropyridin-2-one] | 50 to 200
Cc1nc(N2CCOCC2)ccc1-c1nc2ccncc2n1-c1ccc(F)cc1 [Example 108, 4-{5-[3-(4-Fluorophenyl)-3H-imidazo[4,5-c]pyridin-2-yl]-6-methylpyridin-2-yl}morpholine] | 200 to 1200
NC(=O)NC1CCN(c2ccc(-c3nc4ccncc4n3-c3ccc(Cl)cc3)cn2)CC1 [Example 91, (1-{5-[3-(4-Chlorophenyl)-3H-imidazo[4,5-c]pyridin-2-yl]pyridin-2-yl}piperidin-4-yl)urea; bis(trifluoroacetic acid)] | 200 to 1200
O=c1cc(-c2nc3ccncc3n2-c2ccc(Cl)cc2F)ccn1C1CC1 [Example 116, 4-[3-(4-Chloro-2-fluorophenyl)-3H-imidazo[4,5-c]pyridin-2-yl]-1-cyclopropyl-1,2-dihydropyridin-2-one] | 50 to 200
Nc1ccc(-c2nc3ccncc3n2-c2ccc(Cl)cc2)cn1 [Example 110, 5-[3-(4-Chlorophenyl)-3H-imidazo[4,5-c]pyridin-2-yl]pyridin-2-amine] | 200 to 1200
Fc1ccc(-n2c(-c3cnc(C4CC4)nc3)nc3ccncc32)cc1 [Example 30, 2-Cyclopropyl-5-[3-(4-fluorophenyl)-3H-imidazo[4,5-c]pyridin-2-yl]pyrimidine] | 200 to 1200
CN(C)c1ncc(-c2nc3ccncc3n2-c2ccc(Cl)cc2)cn1 [Example 72, 5-[3-(4-Chlorophenyl)-3H-imidazo[4,5-c]pyridin-2-yl]-N,N-dimethylpyrimidin-2-amine] | 200 to 1200
FC(F)(F)c1ccc(-n2c(-c3ccc(N4CCOCC4)nc3)nc3ccncc32)cc1 [Example 66, 4-(5-{3-[4-(Trifluoromethyl)phenyl]-3H-imidazo[4,5-c]pyridin-2-yl}pyridin-2-yl)morpholine] | 50 to 200
Fc1ccc(-n2c(-c3cnc(N4CCOCC4)nc3)nc3ccncc32)nc1 [Example 76, 4-{5-[3-(5-Fluoropyridin-2-yl)-3H-imidazo[4,5-c]pyridin-2-yl]pyrimidin-2-yl}morpholine] | 50 to 200
Cc1cc(N2CCOCC2)nc(C)c1-c1nc2ccncc2n1-c1ccc(F)cc1 [Example 29, 4-{5-[3-(4-Fluorophenyl)-3H-imidazo[4,5-c]pyridin-2-yl]-4,6-dimethylpyridin-2-yl}morpholine] | 200 to 1200
CN1CCN(C(=O)c2ccc(-c3cc4ccncc4n3-c3ccc(Cl)cc3)cc2)CC1 [Example 125, 1-({4-[1-(4-Chlorophenyl)-1H-pyrrolo[2,3-c]pyridin-2-yl]phenyl}carbonyl)-4-methylpiperazine] | 200 to 1200
CN(C)c1ccc(-c2nc3ccncc3n2-c2ccc(F)cc2)cn1 [Example 71, 5-[3-(4-Fluorophenyl)-3H-imidazo[4,5-c]pyridin-2-yl]-N,N-dimethylpyridin-2-amine] | 200 to 1200
Cc1cc(NCC2CC2)ncc1-c1nc2ccncc2n1-c1ccc(F)cc1 [Example 101, N-(Cyclopropylmethyl)-5-[3-(4-fluorophenyl)-3H-imidazo[4,5-c]pyridin-2-yl]-4-methylpyridin-2-amine] | 50 to 200
Cc1ccc(-n2c(-c3cnc(NC4CCOCC4)nc3)nc3ccncc32)cc1 [Example 119, 5-[3-(4-Methylphenyl)-3H-imidazo[4,5-c]pyridin-2-yl]-N-(oxan-4-yl)pyrimidin-2-amine; bis(trifluoroacetic acid)] | 50 to 200
NC(=O)N1CCCN(c2ccc(-c3nc4ccncc4n3-c3ccc(F)cc3)cn2)CC1 [Example 94, 4-{5-[3-(4-Fluorophenyl)-3H-imidazo[4,5-c]pyridin-2-yl]pyridin-2-yl}-1,4-diazepane-1-carboxamide] | 200 to 1200

Structure (SMILES) | IC50 [nM]
NC(=O)N1CCN(c2ncc(-c3nc4ccncc4n3-c3ccc(Cl)cc3)o2)CC1 [Example 93, 4-{5-[3-(4-Chlorophenyl)-3H-imidazo[4,5-c]pyridin-2-yl]-1,3-oxazol-2-yl}piperazine-1-carboxamide] | 50 to 200
O=c1ccc(-c2nc3ccncc3n2-c2ccc(Cl)cc2F)c[nH]1 [Example 35, 5-[3-(4-Chloro-2-fluorophenyl)-3H-imidazo[4,5-c]pyridin-2-yl]-1,2-dihydropyridin-2-one] | 200 to 1200
Cc1ccc(-n2c(-c3ccc(N4CCOCC4)nc3)nc3ccncc32)cn1 [Example 64, 4-{5-[3-(6-Methylpyridin-3-yl)-3H-imidazo[4,5-c]pyridin-2-yl]pyridin-2-yl}morpholine] | 200 to 1200
Fc1ccc(-n2c(-c3cnc(NC4CCOCC4)nc3)nc3ccncc32)cc1 [Example 20, 5-[3-(4-Fluorophenyl)-3H-imidazo[4,5-c]pyridin-2-yl]-N-(oxan-4-yl)pyrimidin-2-amine] | 50 to 200
Clc1ccc(-n2c(-c3cnc(N4CCOCC4)cn3)nc3ccncc32)cc1 [Example 5, 4-{5-[3-(4-Chlorophenyl)-3H-imidazo[4,5-c]pyridin-2-yl]pyrazin-2-yl}morpholine] | 50 to 200
Clc1ccc(-n2c(-c3cnc(NC4CCOCC4)cn3)nc3ccncc32)cc1 [Example 7, 5-[3-(4-Chlorophenyl)-3H-imidazo[4,5-c]pyridin-2-yl]-N-(oxan-4-yl)pyrazin-2-amine] | 50 to 200
Fc1cc(-n2c(-c3cnc(N4CCOCC4)nc3)nc3ccncc32)ccc1Cl [Example 74, 4-{5-[3-(4-Chloro-3-fluorophenyl)-3H-imidazo[4,5-c]pyridin-2-yl]pyrimidin-2-yl}morpholine] | 200 to 1200
Fc1cc(Cl)ccc1-n1c(-c2ccc(N3CCOCC3)nc2)nc2ccncc21 [Example 80, 4-{5-[3-(4-Chloro-2-fluorophenyl)-3H-imidazo[4,5-c]pyridin-2-yl]pyridin-2-yl}morpholine] | 50 to 200
O=C(NC1CC1)c1ccc(-c2nc3ccncc3n2-c2ccc(Cl)cc2)cn1 [Example 14, 5-[3-(4-Chlorophenyl)-3H-imidazo[4,5-c]pyridin-2-yl]-N-cyclopropylpyridine-2-carboxamide] | 200 to 1200
Cn1cc(-c2nc3ccncc3n2-c2ccc(Cl)cc2)ccc1=O [Example 33, 5-[3-(4-Chlorophenyl)-3H-imidazo[4,5-c]pyridin-2-yl]-1-methyl-1,2-dihydropyridin-2-one] | 200 to 1200
Brc1ccc(-n2c(-c3cnc(N4CCOCC4)nc3)nc3ccncc32)cc1 [Example 59, 4-{5-[3-(4-Bromophenyl)-3H-imidazo[4,5-c]pyridin-2-yl]pyrimidin-2-yl}morpholine] | 50 to 200
Cc1ccc(-n2c(-c3cnc(N4CCOCC4)nc3)nc3ccncc32)cc1 [Example 57, 4-{5-[3-(4-Methylphenyl)-3H-imidazo[4,5-c]pyridin-2-yl]pyrimidin-2-yl}morpholine] | 50 to 200
Clc1ccc(-n2c(-c3csc(N4CCNCC4)n3)nc3ccncc32)cc1 [Example 17, 1-{4-[3-(4-Chlorophenyl)-3H-imidazo[4,5-c]pyridin-2-yl]-1,3-thiazol-2-yl}piperazine dihydrochloride] | 200 to 1200
Cc1ccc(-n2c(-c3cnc(N4CCOCC4)nc3)nc3ccncc32)cn1 [Example 58, 4-{5-[3-(6-Methylpyridin-3-yl)-3H-imidazo[4,5-c]pyridin-2-yl]pyrimidin-2-yl}morpholine] | 200 to 1200
Fc1ccc(-n2c(-c3ccnc(N4CCOCC4)c3)nc3ccncc32)cc1 [Example 73, 4-{4-[3-(4-Fluorophenyl)-3H-imidazo[4,5-c]pyridin-2-yl]pyridin-2-yl}morpholine] | 50 to 200
c1ccc(-n2c(-c3cnc(N4CCOCC4)nc3)nc3ccncc32)cc1 [Example 95, 4-(5-{3-Phenyl-3H-imidazo[4,5-c]pyridin-2-yl}pyrimidin-2-yl) morpholine] | 50 to 200
